In US20240270695A1, “COMPOUNDS, COMPOSITIONS AND METHODS OF TREATING DISORDERS” (Chengdu Anticancer Bioscience LTD, priority 2021, published 2024) one finds minimal effective concentration data, which are given here for 28 compounds.

Where two headings read alike, the source gives them in different places.

The test system of this test is RPE-Neo or RPE-MYC or RPE-MYC expressing an EGFP-Histone 2B fusion protein. Nature of the test: Phenotypic screening assay (arrest in mitosis, change in DNA content, cell death; GE IN-Cell Analyzer 2000). Conditions: Homo sapiens, compounds 20 nM to 20 μM, 24, 48 or 72 hours. Format: cell-based.
The mark [1] stands for this setting: read-out: Min. Effective conc. for Polyploidy (≥10%).
Where [2] appears, read: min. effective conc., read-out: Mitotic Arrest (≥10%).
[3] abbreviates: min. effective conc., read-out: Cell Death (>30%).

On to `COC(=O)C1=C(O)c2ccccc2N(Cc2ccccc2)C(=O)C1` [Example 1, Methyl 1-benzyl-5-hydroxy-2-oxo-2,3-dihydro-1H-benzo[b]azepine-4-carboxylate], for which the minimal effective concentration is, setting by setting: under setting [1], 30 to 1000 µM; under setting [2], 30 to 1000 µM.

Consider `COC(=O)C1=C(O)c2ccccc2N(Cc2cccc(C)c2)C(=O)C1` [Example 5, Methyl 5-hydroxy-1-(3-methylbenzyl)-2-oxo-2,3-dihydro-1H-benzo[b]azepine-4-carboxylate], for which the minimal effective concentration was 30 to 1000 µM under setting [1], 30 to 1000 µM under setting [3] and 30 to 1000 µM under setting [2].

In the case of `COC(=O)C1=C(O)c2ccccc2N(Cc2cc(C)cc(C)c2)C(=O)C1` [Example 6, Methyl 1-(3,5-dimethylbenzyl)-5-hydroxy-2-oxo-2,3-dihydro-1H-benzo[b]azepine-4-carboxylate], the minimal effective concentration by setting is: under setting [1], 30 to 1000 µM; under setting [3], 30 to 1000 µM; under setting [2], 30 to 1000 µM.

Regarding `COC(=O)C1=C(O)c2ccccc2N(Cc2ccc(C)cc2)C(=O)C1` [Example 7, Methyl 5-hydroxy-1-(4-methylbenzyl)-2-oxo-2,3-dihydro-1H-benzo[b]azepine-4-carboxylate], the minimal effective concentration reads like this: under setting [1], 0.001 to 1 µM; under setting [3], 0.001 to 1 µM; under setting [2], 0.001 to 1 µM.

Take `COC(=O)C1=C(O)c2ccccc2N(Cc2ccccc2F)C(=O)C1` [Example 9, Methyl 1-(2-fluorobenzyl)-5-hydroxy-2-oxo-2,3-dihydro-1H-benzo[b]azepine-4-carboxylate]: the minimal effective concentration is, setting by setting: under setting [1], 30 to 1000 µM; under setting [2], 30 to 1000 µM.

Regarding `COC(=O)C1=C(O)c2ccccc2N(Cc2ccc(F)cc2)C(=O)C1` [Example 10, Methyl 1-(4-fluorobenzyl)-5-hydroxy-2-oxo-2,3-dihydro-1H-benzo[b]azepine-4-carboxylate], the minimal effective concentration was 30 to 1000 µM under setting [1] and 30 to 1000 µM under setting [2].

Regarding `COC(=O)C1=C(O)c2ccccc2N(Cc2cnc3ccccc3c2)C(=O)C1` [Example 12, Methyl 5-hydroxy-2-oxo-1-(quinolin-3-ylmethyl)-2,3-dihydro-1H-benzo[b]azepine-4-carboxylate], the minimal effective concentration under setting [3] was in the range of 30 to 1000 µM.

Turning to `COC(=O)C1=C(O)c2ccccc2N(Cc2ccc3ccccc3c2)C(=O)C1` [Example 14, Methyl 5-hydroxy-1-(naphthalen-2-ylmethyl)-2-oxo-2,3-dihydro-1H-benzo[b]azepine-4-carboxylate], the minimal effective concentration was in the range of 1 to 10 µM under setting [1], 1 to 10 µM under setting [3] and 1 to 10 µM under setting [2].

`COC(=O)C1=C(O)c2ccccc2N(Cc2c(C)cccc2C)C(=O)C1` [Example 16, Methyl 1-(2,6-dimethylbenzyl)-5-hydroxy-2-oxo-2,3-dihydro-1H-benzo[b]azepine-4-carboxylate]: the minimal effective concentration under setting [3] is 30 to 1000 µM.

On to `COC(=O)C1=C(O)c2ccccc2N(Cc2cccc(C)c2C)C(=O)C1` [Example 17, Methyl 1-(2,3-dimethylbenzyl)-5-hydroxy-2-oxo-2,3-dihydro-1H-benzo[b]azepine-4-carboxylate], for which the minimal effective concentration by setting is: under setting [1], 1 to 10 µM; under setting [3], 1 to 10 µM; under setting [2], 1 to 10 µM.

For the compound `COC(=O)C1=C(O)c2ccccc2N(Cc2ccc(F)cc2F)C(=O)C1` [Example 18, Methyl 1-(2,4-difluorobenzyl)-5-hydroxy-2-oxo-2,3-dihydro-1H-benzo[b]azepine-4-carboxylate], the minimal effective concentration under setting [1] fell in the range of 30 to 1000 µM, the minimal effective concentration under setting [3] is 30 to 1000 µM and the minimal effective concentration under setting [2] was in the range of 30 to 1000 µM.

On to `COC(=O)C1=C(O)c2ccccc2N(Cc2cc(F)ccc2F)C(=O)C1` [Example 19, Methyl 1-(2,5-difluorobenzyl)-5-hydroxy-2-oxo-2,3-dihydro-1H-benzo[b]azepine-4-carboxylate], for which the minimal effective concentration is, setting by setting: under setting [1], 30 to 1000 µM; under setting [3], 30 to 1000 µM; under setting [2], 30 to 1000 µM.

Regarding `COC(=O)C1=C(O)c2ccccc2N(Cc2cc(F)cc(F)c2)C(=O)C1` [Example 20, Methyl 1-(3,5-difluorobenzyl)-5-hydroxy-2-oxo-2,3-dihydro-1H-benzo[b]azepine-4-carboxylate], the minimal effective concentration was 30 to 1000 µM under setting [1], 30 to 1000 µM under setting [3] and 30 to 1000 µM under setting [2].

Consider `COC(=O)C1=C(O)c2ccccc2N(Cc2cccc(F)c2F)C(=O)C1` [Example 22, Methyl 1-(2,3-difluorobenzyl)-5-hydroxy-2-oxo-2,3-dihydro-1H-benzo[b]azepine-4-carboxylate], for which, under setting [3], the minimal effective concentration lay within 30 to 1000 µM.

Consider `COC(=O)C1=C(O)c2ccccc2N(Cc2cccc(OC)c2)C(=O)C1` [Example 27, Methyl 5-hydroxy-1-(3-methoxybenzyl)-2-oxo-2,3-dihydro-1H-benzo[b]azepine-4-carboxylate], for which the minimal effective concentration under setting [1] is 10 to 30 µM and the minimal effective concentration under setting [2] is 10 to 30 µM.

For the compound `COC(=O)C1=C(O)c2ccccc2N(Cc2cc(F)c(F)c(F)c2)C(=O)C1` [Example 28, Methyl 5-hydroxy-2-oxo-1-(3,4,5-trifluorobenzyl)-2,3-dihydro-1H-benzo[b]azepine-4-carboxylate], the minimal effective concentration under setting [3] was 30 to 1000 µM.

Turning to `COC(=O)C1=C(O)c2ccccc2N(Cc2ccc(C)cc2C)C(=O)C1` [Example 29, Methyl 1-(2,4-dimethylbenzyl)-5-hydroxy-2-oxo-2,3-dihydro-1H-benzo[b]azepine-4-carboxylate], the minimal effective concentration under setting [1] is 1 to 10 µM, the minimal effective concentration under setting [3] is 1 to 10 µM and the minimal effective concentration under setting [2] fell in the range of 1 to 10 µM.

As for `COC(=O)C1=C(O)c2ccccc2N(Cc2ccc(C(C)C)cc2)C(=O)C1` [Example 30, Methyl 5-hydroxy-1-(4-isopropylbenzyl)-2-oxo-2,3-dihydro-1H-benzo[b]azepine-4-carboxylate], the minimal effective concentration by setting is: under setting [1], 10 to 30 µM; under setting [3], 10 to 30 µM; under setting [2], 10 to 30 µM.

On to `COC(=O)C1=C(O)c2ccccc2N(Cc2ccc(OC(F)F)cc2)C(=O)C1` [Example 33, Methyl 1-(4-(difluoromethoxy)benzyl)-5-hydroxy-2-oxo-2,3-dihydro-1H-benzo[b]azepine-4-carboxylate], for which the minimal effective concentration lay within 1 to 10 µM under setting [1], 1 to 10 µM under setting [3] and 1 to 10 µM under setting [2].

In the case of `COC(=O)C1=C(O)c2ccccc2N(Cc2ccc(OC)cc2)C(=O)C1` [Example 34, Methyl 5-hydroxy-1-(4-methoxybenzyl)-2-oxo-2,3-dihydro-1H-benzo[b]azepine-4-carboxylate], the minimal effective concentration lay within 0.001 to 1 µM under setting [1], 0.001 to 1 µM under setting [3] and 0.001 to 1 µM under setting [2].

With `COC(=O)C1=C(O)c2ccccc2N(Cc2ccccc2C)C(=O)C1` [Example 35, Methyl 5-hydroxy-1-(2-methylbenzyl)-2-oxo-2,3-dihydro-1H-benzo[b]azepine-4-carboxylate], the minimal effective concentration is, setting by setting: under setting [1], 30 to 1000 µM; under setting [3], 30 to 1000 µM; under setting [2], 30 to 1000 µM.

In the case of `COC(=O)C1=C(O)c2ccccc2N(Cc2ccc(C)c(C)c2)C(=O)C1` [Example 36, Methyl 1-(3,4-dimethylbenzyl)-5-hydroxy-2-oxo-2,3-dihydro-1H-benzo[b]azepine-4-carboxylate], the minimal effective concentration runs as follows: under setting [1], 10 to 30 µM; under setting [3], 10 to 30 µM; under setting [2], 10 to 30 µM.

With `CCc1ccc(CN2C(=O)CC(C(=O)OC)=C(O)c3ccccc32)cc1` [Example 37, Methyl 1-(4-ethylbenzyl)-5-hydroxy-2-oxo-2,3-dihydro-1H-benzo[b]azepine-4-carboxylate], the minimal effective concentration by setting is: under setting [1], 0.001 to 1 µM; under setting [3], 0.001 to 1 µM; under setting [2], 0.001 to 1 µM.

As for `COC(=O)C1=C(O)c2ccccc2N(Cc2ccc(C(F)(F)F)cc2)C(=O)C1` [Example 40, Methyl 5-hydroxy-2-oxo-1-(4-(trifluoromethyl)benzyl)-2,3-dihydro-1H-benzo[b]azepine-4-carboxylate], the minimal effective concentration reads like this: under setting [1], 1 to 10 µM; under setting [3], 1 to 10 µM; under setting [2], 1 to 10 µM.

On to `COC(=O)C1=C(O)c2ccccc2N(Cc2ccc(C)c(F)c2)C(=O)C1` [Example 41, Methyl 1-(3-fluoro-4-methylbenzyl)-5-hydroxy-2-oxo-2,3-dihydro-1H-benzo[b]azepine-4-carboxylate], for which the minimal effective concentration under setting [1] is 0.001 to 1 µM, the minimal effective concentration under setting [3] is 0.001 to 1 µM and the minimal effective concentration under setting [2] was in the range of 0.001 to 1 µM.

As for `COC(=O)C1=C(O)c2ccccc2N(Cc2ccc(C)c(Cl)c2)C(=O)C1` [Example 45, Methyl 1-(3-chloro-4-methylbenzyl)-5-hydroxy-2-oxo-2,3-dihydro-1H-benzo[b]azepine-4-carboxylate], the minimal effective concentration reads like this: under setting [1], 1 to 10 µM; under setting [3], 1 to 10 µM; under setting [2], 1 to 10 µM.

Turning to `COC(=O)C1=C(O)c2ccccc2N(Cc2ccc(C)c(Br)c2)C(=O)C1` [Example 46, Methyl 1-(3-bromo-4-methylbenzyl)-5-hydroxy-2-oxo-2,3-dihydro-1H-benzo[b]azepine-4-carboxylate], the minimal effective concentration by setting is: under setting [1], 1 to 10 µM; under setting [3], 1 to 10 µM; under setting [2], 1 to 10 µM.

For `COC(=O)C1=C(O)c2ccccc2N(Cc2ccc(OC)c(F)c2)C(=O)C1` [Example 48, Methyl 1-(3-fluoro-4-methoxybenzyl)-5-hydroxy-2-oxo-2,3-dihydro-1H-benzo[b]azepine-4-carboxylate], the minimal effective concentration under setting [1] fell in the range of 0.001 to 1 µM, the minimal effective concentration under setting [3] lay in the range of 0.001 to 1 µM and the minimal effective concentration under setting [2] lay in the range of 0.001 to 1 µM.
